Experimental findings from ChEMBL document CHEMBL1137195, “SAR and pharmacokinetic studies on phenethylamide inhibitors of the hepatitis C virus NS3/NS4A serine protease” (Bioorg Med Chem Lett, 2004) are described below.

The term Ki denotes a dissociation constant, usually derived from enzyme kinetics or from competition with a known ligand. As a reminder, the AUC is the area under the concentration-time curve, a measure of exposure. Higher therefore signals more exposure. One may read the clearance as a measure of how efficiently the substance is removed, as volume per time. The term half-life denotes the time needed for the level to fall by half in the phase considered. Read a high half-life as slow decline.

In data set [1] the target is Hepatitis C virus serine protease, NS3/NS4A (Hepatitis C virus, UniProt A3EZI9+D2K2A8). Kind of data set: (§1) Inhibitory activity against Hepatitis C virus Non structural protein 3 serine protease/Non structural protein 4A serine protease. In kind it is protein-complex assay, Hepacivirus hominis.
Sequence of Hepatitis C virus serine protease, NS3/NS4A (Hepatitis C virus, UniProt A3EZI9+D2K2A8) (D2K2A8 whole entry): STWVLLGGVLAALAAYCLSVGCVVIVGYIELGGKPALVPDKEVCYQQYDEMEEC
Sequence of Hepatitis C virus serine protease, NS3/NS4A (Hepatitis C virus, UniProt A3EZI9+D2K2A8) (A3EZI9 whole entry): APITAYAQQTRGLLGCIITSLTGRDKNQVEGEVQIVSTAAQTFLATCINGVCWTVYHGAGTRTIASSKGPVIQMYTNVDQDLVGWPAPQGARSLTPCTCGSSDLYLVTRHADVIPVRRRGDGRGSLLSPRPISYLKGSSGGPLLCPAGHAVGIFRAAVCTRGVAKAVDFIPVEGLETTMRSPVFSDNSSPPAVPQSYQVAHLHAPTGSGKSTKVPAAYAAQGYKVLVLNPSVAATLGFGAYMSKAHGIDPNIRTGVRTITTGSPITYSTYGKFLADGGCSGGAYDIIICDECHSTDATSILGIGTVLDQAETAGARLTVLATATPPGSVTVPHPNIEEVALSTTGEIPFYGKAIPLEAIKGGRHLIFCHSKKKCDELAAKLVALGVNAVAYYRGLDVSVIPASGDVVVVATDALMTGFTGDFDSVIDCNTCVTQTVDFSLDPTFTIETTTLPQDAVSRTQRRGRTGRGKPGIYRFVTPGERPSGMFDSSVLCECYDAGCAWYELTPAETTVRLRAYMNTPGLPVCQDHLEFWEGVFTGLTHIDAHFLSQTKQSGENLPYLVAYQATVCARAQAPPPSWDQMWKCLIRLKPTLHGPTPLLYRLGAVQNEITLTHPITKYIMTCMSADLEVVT
Data set [2] can be described thus: Area under curve in rats at 2 mg/kg. The class given is ADME, organism-based. Also on record: dose 2 mg/kg. Conditions: rat, in vivo.
Data set [3] can be described thus: plasma clearance in rats at 2 mg/kg. The class given is ADME, organism-based. Also on record: dose 2 mg/kg. Conditions: rat.
Data set [4] is described as follows: Volume distribution in rats at 2 mg/kg. In kind it is ADME, organism-based. More on the design: dose 2 mg/kg. The following applies: rat, in vivo, read-out: Vdss.
The nature of data set [5]: Half life in rats at 2 mg/kg. More on the design: dose 2 mg/kg. The class given is ADME, organism-based. The following applies: rat, in vivo.
Data set [6] deals with T1, Hepatitis C virus serine protease, NS3/NS4A (Hepatitis C virus, UniProt D2K2A8+A3EZI9). Kind of data set: Inhibitory activity against Hepatitis C virus Non structural protein 3 serine protease/Non structural protein 4A serine protease: Not active at 50 uM. The class given is protein-complex assay, Hepacivirus hominis.
T1 sequence (D2K2A8 whole entry): as the sequence (D2K2A8 whole entry) above
T1 sequence (A3EZI9 whole entry): as the sequence (A3EZI9 whole entry) above
The nature of data set [7]: Half life in rats. In kind it is ADME. Conditions: rat, in vivo.
Data set [8] is described as follows: Area under curve in rats. In kind it is ADME. Conditions: rat, in vivo.
Data set [9] is described as follows: plasma clearance in rats. The class given is ADME, organism-based. The following applies: rat.
A short description of data set [10]: Volume distribution in rats. In kind it is ADME, organism-based. The following applies: rat, in vivo; read-out: Vdss.
Data set [11] concerns the target T1, Hepatitis C virus serine protease, NS3/NS4A. Described as §1. In kind it is protein-complex assay, Hepacivirus hominis.

Compound `CC(C)COC(=O)N[C@H](C(=O)N1C[C@H](C2CCCCC2)C[C@H]1C(=O)N[C@@H](CC(F)F)C(=O)NCCc1cccc(NC(C(=O)O)c2ccccc2)c1)C(C)C` (some centres undefined) came in with a Ki in data set [1] of 0.65 µM.

In data set [1], `CC(C)COC(=O)N[C@H](C(=O)N1C[C@H](c2ccccc2)C[C@H]1C(=O)N[C@@H](CC(F)F)C(=O)NCCc1cccc(/C=C/C(=O)O)c1)C(C)C` returned a Ki of 1.3 µM.

`COc1ccc2c(O[C@@H]3C[C@@H](C(=O)N[C@@H](CC(F)F)C(=O)NCCc4c(F)cc(C(=O)O)cc4F)N(C(=O)C(NC(=O)OCC(C)C)C(C)(C)C)C3)cc(-c3ccccc3)nc2c1` (some centres undefined) returned a Ki in [1] of 0.03 µM.

Regarding `CC(C)COC(=O)N[C@H](C(=O)N1C[C@H](C2CCCCC2)C[C@H]1C(=O)N[C@@H](CC(F)F)C(=O)NCCc1c(F)cc(C(=O)NS(C)(=O)=O)cc1F)C(C)C`, in data set [1], the Ki was 0.45 µM. In addition, the AUC in data set [2] came out at 0.9 µM·h. This compound also came in with a clearance in data set [3] of 46 mL/min/kg. In data set [4], the Vd was 0.8 L/kg. In addition, the half-life in data set [5] stood at 19 min.

On to `CC(C)COC(=O)N[C@H](C(=O)N1C[C@H](c2ccccc2)C[C@H]1C(=O)N[C@@H](CC(F)F)C(=O)NCCc1cccc(OC(C(=O)O)c2ccccc2)c1)C(C)C` (some centres undefined), for which the Ki in data set [1] was 1 µM.

As for `CCC(Nc1cccc(CCNC(=O)[C@H](CC(F)F)NC(=O)[C@@H]2C[C@@H](C3CCCCC3)CN2C(=O)[C@@H](NC(=O)OCC(C)C)C(C)C)c1)C(=O)O` (some centres undefined), the Ki in data set [1] was 0.5 µM.

In turn, `CC(C)COC(=O)N[C@H](C(=O)N1C[C@H](C2CCCCC2)C[C@H]1C(=O)N[C@@H](CC(F)F)C(=O)NCCc1c(F)ccc(OCC(=O)O)c1F)C(C)C` registered a Ki in data set [1] of 0.19 µM.

For `CC(C)COC(=O)N[C@H](C(=O)N1C[C@H](c2ccccc2)C[C@H]1C(=O)N[C@@H](CC(F)F)C(=O)NCCc1cccc(/C=C/C(=O)O)c1F)C(C)C`, in data set [1], the Ki amounted to 0.4 µM.

Consider `COC(=O)c1cc(F)c(CCNC(=O)[C@H](CC(F)F)NC(=O)[C@@H]2C[C@@H](C3CCCCC3)CN2C(=O)[C@@H](NC(=O)OCC(C)C)C(C)C)c(F)c1`, for which, in [6], the Ki entry is listed as “Not Active”.

`CC(C)COC(=O)N[C@H](C(=O)N1C[C@H](C2CCCCC2)C[C@H]1C(=O)N[C@@H](CC(F)F)C(=O)NCCc1c(F)ccc(OC(C)C(=O)O)c1F)C(C)C` (some centres undefined): the Ki in [1] was determined as 0.12 µM.

As for `CC(C)COC(=O)N[C@H](C(=O)N[C@@H](CC(C)C)C(=O)N[C@@H](CC(F)F)C(=O)NCCc1c(F)cc(C(=O)O)cc1F)C(C)C`, affinity in data set [1] was put at a Ki of 0.4 µM.

With `COc1ccc2c(O[C@@H]3C[C@@H](C(=O)N[C@@H](CC(F)F)C(=O)NCCc4c(F)cc(C(=O)O)cc4F)N(C(=O)[C@@H](NC(=O)OCC(C)C)C(C)C)C3)cc(-c3csc(NC(C)C)n3)nc2c1`, the Ki in data set [1] came to 0.02 µM.

Compound `CC(C)COC(=O)N[C@H](C(=O)N1C[C@H](C2CCCCC2)C[C@H]1C(=O)N[C@@H](CC(F)F)C(=O)NCCc1c(F)cc(-c2nnn[nH]2)cc1F)C(C)C` displayed a Ki in data set [1] of 0.1 µM. The compound further returned a half-life in [7] of 74 min. The same compound showed an AUC in data set [8] of 12.4 µM·h. Also, in data set [9], the clearance came out at 9 mL/min/kg. Moreover, the Vd in [10] stood at 0.15 L/kg.

`CC(C)COC(=O)N[C@H](C(=O)N1C[C@H](c2ccccc2)C[C@H]1C(=O)N[C@@H](CC(F)F)C(=O)NCCc1cc(/C=C/C(=O)O)ccc1F)C(C)C`: the affinity in [1], expressed as Ki, was 0.35 µM.

In [11], `CC(C)COC(=O)N[C@H](C(=O)N1CC(c2ccccc2)C[C@@H]1C(=O)N[C@@H](CC(F)F)C(=O)NCCc1c(F)cc(C(=O)O)cc1F)C(C)C` (some centres undefined) came in with a Ki of 0.45 µM. In [7], the half-life came out at 72 min. This compound gave an AUC in [8] of 1.3 µM·h. In data set [9], this compound showed a clearance of 36 mL/min/kg. Also, the Vd in [10] stood at 2.4 L/kg.

For the compound `CC(C)COC(=O)N[C@H](C(=O)N1CC(C2CCCCC2)C[C@@H]1C(=O)N[C@@H](CC(F)F)C(=O)NCCc1c(F)cc(C(=O)O)cc1F)C(C)C` (some centres undefined), the affinity in [11] corresponds to a Ki of 0.35 µM. The half-life in data set [7] stood at 15 min. The AUC in [8] is 2.7 µM·h. For the same compound, the clearance in data set [9] was 44 mL/min/kg. Moreover, the Vd in data set [10] was found to be 0.45 L/kg.

`CC(C)COC(=O)N[C@H](C(=O)N[C@@H](CC(C)C)C(=O)N[C@@H](CC(F)F)C(=O)NCCc1ccc(C(=O)O)cc1Cl)C(C)C` gave a Ki in [1] of 1.2 µM.

Consider `CC(C)COC(=O)N[C@H](C(=O)N1CC(OCc2ccccc2)C[C@@H]1C(=O)N[C@@H](CC(F)F)C(=O)NCCc1c(F)cc(C(=O)O)cc1F)C(C)C` (stereo in doubt; cis), for which the affinity in [11] corresponds to a Ki of 4.5 µM.

Compound `CC(C)COC(=O)N[C@H](C(=O)N1CC(OCc2ccccc2)C[C@@H]1C(=O)N[C@@H](CC(F)F)C(=O)NCCc1c(F)cc(C(=O)O)cc1F)C(C)C` (stereo in doubt; trans) returned a Ki in data set [11] of 0.55 µM. This compound yielded a half-life in data set [7] of 48 min. In data set [8], the AUC worked out at 0.4 µM·h. The compound further gave a clearance in data set [9] of 222 mL/min/kg. Also, the Vd in [10] was determined as 4.5 L/kg.
